Results from US12012410B2, “Substituted pyrazolo[1,5-a]pyrazines for spinal muscular atrophy” (REBORNA BIOSCIENCES, INC., priority 2018, dated 2024).

Tested on: FL-SMN mRNA (SMN transcript containing exons 7 and 8)
Assay: Live-cell assay to measure changes in FL-SMN mRNA levels (qPCR) after exposure to the compounds
Type: cell-based, human
Conditions: fibroblasts derived from patients SMA (GM03813); 24 hours incubation
Method in brief: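 SMA patient fibroblasts (GM03813) in DMEM/10% FBS were treated with compound (0.1% DMSO final) for 24 h. FL-SMN and Δ7 mRNA were measured by RT-qPCR against oligo DNA standard curves and normalised to GAPDH. Values are % of the DMSO control, binned by asterisk from ≥100% to ≥180%.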

Compound | Percentage of increase (FL-SMN mRNA standardized against GAPDH, DMSO control set as 100%)
Cc1cn2nc(-c3nc4ccc(N5CCN(C)C[C@H]5C)cc4c(=O)[nH]3)cc2c(C)n1 [Example 128, (R)-6-(2,4-simethylpiperazin-1-yl)-2-(4,6-dimethylpyrazolo[1,5-a]pyrazin-2-yl)quinazolin-4(3H)-one] | **** (equal to or higher than 180%)
CC[C@H]1CN(C)CCN1c1ccc2nc(-c3cc4c(C)nc(C)cn4n3)[nH]c(=O)c2c1 [Example 129, (S)-2-(4,6-dimethylpyrazolo[1,5-a]pyrazin-2-yl)-6-(2-ethyl-4-methylpiperazin-1-yl)quinazolin-4(3H)-one] | *** (equal to or higher than 150% but lower than 180%)
CCN1CCN(c2ccc3nc(-c4cc5c(C)nc(C)cn5n4)[nH]c(=O)c3c2)[C@@H](C)C1 [Example 130, (S)-2-(4,6-dimethylpyrazolo[1,5-a]pyrazin-2-yl)-6-(4-ethyl-2-methylpiperazin-1-yl)quinazolin-4(3H)-one] | *** (equal to or higher than 150% but lower than 180%)
CCN1CCN(c2ccc3nc(-c4cc5c(C)nc(C)cn5n4)[nH]c(=O)c3c2)[C@H](C)C1 [Example 131, (R)-2-(4,6-dimethylpyrazolo[1,5-a]pyrazin-2-yl)-6-(4-ethyl-2-methylpiperazin-1-yl)quinazolin-4(3H)-one] | *** (equal to or higher than 150% but lower than 180%)
CC[C@@H]1CN(C)CCN1c1ccc2nc(-c3cc4c(C)nc(C)cn4n3)[nH]c(=O)c2c1 [Example 132, (R)-2-(4,6-dimethylpyrazolo[1,5-a]pyrazin-2-yl)-6-(2-ethyl-4-methylpiperazin-1-yl)quinazolin-4(3H4)-one] | *** (equal to or higher than 150% but lower than 180%)
